Test results published in US20030044413A1, “Methods of limiting apoptosis of cells” (Regents of the University of Minnesota, priority 1998, published 2003).

Assays:
[1] = Bile acid quantification by gas chromatography in primary rat hepatocytes; assay type: in vitro ADME; conditions: 6 h
Experimental: (§1) In parallel experiments, isolated rat hepatocytes (2×10^7 cells) and HuH-7 cells (2×10^6 cells) were incubated with 50 μM or 100 μM, respectively, of DCA, UDCA or DCA+UDCA for 6 h. Cells were washed 3 times with PBS, pH 7.4, harvested, centrifuged at 800×g for 5 min in a JS-4.0 Beckman rotor (Beckman Instruments, Inc., Schaumburg, Ill.) at 4° C., washed again, and the final pellet was flash-frozen in liquid nitrogen. Cells were then analyzed for intracellular bile acid concentrations by gas chromatography.
(§2) Bile acid quantification by gas chromatography. […] Quantification of bile acids was achieved using gas chromatography, by comparing the peak height response of the individual bile acids with the peak height response obtained from the internal standard, nordeoxycholic acid, which was added to each sample prior to bile acid extraction.

[2] = Bile acid quantification by gas chromatography in HuH-7 cells; assay type: in vitro ADME, human; conditions: 6 h
Experimental: as §1, §2

[3] = test system: HuH-7 cells; assay: DCA-induced apoptosis, Hoechst staining, HuH-7 cells; assay type: cell-based; conditions: for percent of apoptotic cells: 6 h
From the text: Cell culture and preparation of rat primary hepatocytes. Rat primary hepatocytes were isolated from male Sprague-Dawley rats (200-250 g) by collagenase perfusion as described previously (Mariash et al., J. Biol. Chem, 261, 9583-9586 (1986)). Briefly, rats were aneshtesized with phenobarbitol and the livers were perfused with 0.05% collagenase. Hepatocyte suspensions were obained by passing digested livers through 0.125 mm gauze and washing cells in modified Eagles' medium (MEM, Life Technologies, Inc., Grand Island, N.Y.). […] After isolation, hepatocytes were resuspended in William's E medium (Life Technologies, Inc., Grand Island, N.Y.) supplemented with 26 mM sodium bicarbonate, 23 mM HEPES, 0.01 U/ml insulin, 2 mM L-glutamine, 10 nM dexamethasone, 5.5 mM glucose, 100 U/ml penicillin and 100 U/ml streptomycin and then 1.0×10^6 cells were plated on 35×10 mm […] tissue culture dishes (Becton Dickinson Labware, Lincoln Park, N.J.). The cells were maintained at 37° C. in a humidified atmosphere of 5% CO2 for 3 h. Plates were then washed with medium to remove dead cells, and medium containing 10% heat-inactivated FBS (55° C. for 30 min) was added (Atlanta Biologicals, Inc., Norcross, Ga.). Aliquots of 1.0×10^5 human (HuH-7) hepatoma cells were plated on 35×10 mm tissue culture dishes (Becton Dickinson Labware) and maintained at 37° C. in Dulbecco's MEM (Atlanta Biologicals, Inc.) supplemented with 10% FBS, 100 U/ml penicillin and 100 u/ml streptomycin for 3 h prior to incubation with bile acids.
Incubation of cells with bile acids. Freshly isolated rat hepatocytes were cultured for 3 h as described above and then incubated with William's E medium supplemented with either 50 μM DCA, 50 μM UDCA (Sigma Chemical Co., St. Louis, Mo.), their combination, or no bile acid (control), for 2 h, 4 h, and 6 h. HuH-7 cells cultured for 3 h as described above were incubated with Dulbecco's MEM medium supplemented with either 50 μM, 100 μM, 500 μM, or 1000 μM DCA, UDCA, DCA+UDCA, or no addition (control) for 6 h and 24 h. The medium was gently removed at the indicated time points and scored for nonviable cells by trypan blue dye exclusion. The attached cells were fixed for morphologic assessment of apoptotic changes.
Morphological evaluation of apoptosis. Morphology was performed as described previously (Oberhammer et al., Proc. Natl. Acad. Sci. USA 89, 5408-5412 (1992)). Briefly, after fixation (with 4% formaldehyde in PBS, pH 7.4, for 10 min at room temperature), the cells were incubated with Hoechst dye 33258 (Sigma Chemical Co.) at 5 μg/ml in PBS for 5 min, washed with PBS and mounted with PBS:glycerol (3:1, v/v). Fluorescence was visualized with a Zeiss standard fluorescence microscope (Carl Zeiss, Inc., Thornwood, N.Y.). Photographs were taken with Kodak Ektar-1000 film (Eastman Kodak Co.). Stained nuclei were scored by blind analysis and categorized according to the condensation and staining characteristics of chromatin. Normal nuclei were identified as noncondensed chromatin dispersed over the entire nucleus. Apoptotic nuclei were identified by condensed chromatin, contiguous to the nuclear membrane, as well as nuclear fragmentation of condensed chromatin. Three fields per dish of approximately 500 nuclei were counted; mean values are expressed as the percent of apoptotic nuclei.

[4] = test system: HuH-7 cells; assay: FACS analysis of ΔΨm and ROS, HuH-7 cells; assay type: cell-based, human
Experimental: (§3) A ΔΨm and ROS measurement. ΔΨm and ROS production were measured by FACScan (Becton Dickinson) analysis. Freshly isolated rat hepatocytes were cultured for 3 h as described above and then incubated with William's E medium supplemented with either 100 μM DCA, 100 μM UDCA, equal molar amounts of both, or no bile acid (control), for 6 h. Rat hepatocytes were also cultured with either 1% ethanol, 100 μM UDCA, ethanol+UDCA, or no addition (control) for 4 h. HuH-7 cells, Hep G2 cells, and human osteogenic sarcoma Saos-2 cells were incubated with TGF-β1, anti-Fas antibody or okadaic acid, respectively, for 48 h under the same conditions as outlined above. For combination studies, cells were pretreated with UDCA or hyodeoxycholic acid for 60 min prior to addition of DCA, ethanol, TGF-β1, anti-Fas antibody or okadaic acid. Aliquots of 1.0×10^6 cells were incubated for 15 min at 37° C. with 50 nM 3,3′-dihexyloxacarbocyanine iodide [DiOC6(3)], 2 μM dihydroethidium (HE), or 5 μM 2′,7′-dichlorofluorescin diacetate (H2DCFDA; Molecular Probes, Inc. Eugene, Oreg.) and analyzed by cytofluorometry (Cathcart et al., Anal. Biochem., 134, 111-116 (1983); Zamzami et al., J. Exp. Med., 181, 1661-1672 (1 995); Carter et al., J. Leukocyte Biol., 55, 253-258 (1994)).
(§4) Rat primary hepatocytes were incubated with 100 μM DCA and 1% ETOH for 6 h and 4 h, respectively; HuH-7 cells with 1 nM TGF-β1 for 48 h; Hep G2 cells with 0.5 μg/ml anti-Fas antibody (CH-11) for 48 h, and Saos-2 cells with 50 nM okadaic acid (OA) for 48 h. In each combination group, cells were pretreated with 100 μM UDCA alone for 60 min prior to addition of the inducer. Aliquots of 1.0×10^6 cells were incubated for 15 min at 37° C. with 5 μM 2′,7′-dichlorofluorescin diacetate (H2DCFDA) and analyzed by cytofluorometry.

[5] = test system: Saos-2 cells; assay: FACS analysis of ΔΨm and ROS, Saos-2 cells; assay type: cell-based, human
Experimental: as §3, §4

[6] = incubated with 50 μM DCA and UDCA combined
[7] = incubated with 50 μM of the individual bile acid
[8] = coincubation with 100 μM DCA and UDCA
[9] = incubated with 100 μM of the individual bile acid
[10] = inducer TGF-β1, HuH-7, inhibition by UDCA
[11] = inducer OA, Saos-2, inhibition by UDCA

For `C[C@H](CCC(=O)O)[C@H]1CC[C@H]2[C@@H]3CC[C@@H]4C[C@H](O)CC[C@]4(C)[C@H]3C[C@H](O)[C@]12C` [DCA, deoxycholic acid], the “intracellular concentration of the bile acid” value (shortened to “intracellular concentration”) [1, 6] was 380.3±32.0 nmol/10^8 cells, the “intracellular concentration” value [1, 7] was 49.5±9.9 nmol/10^8 cells and the “intracellular concentration” value [2, 8] was 31.7 ± 15.0 nmol. The “intracellular concentration” value [2, 9] was 28.8±13.3 nmol/10^8cells, the “percent of apoptotic cells” value ([3]; 100 μM DCA) was 16.8% and the apoptotic cells ([3]; 100 μM DCA, 24 h) was 20±2.8%. For the same compound, the “percent of apoptotic cells” value ([3]; 1000 μM DCA) was 66.7% and the necrosis ([3]; elevated bile acid concentrations (up to 1000 μM DCA)) was “no apparent necrosis”.
In the case of `C[C@H](CCC(=O)O)[C@H]1CC[C@H]2[C@@H]3[C@@H](O)C[C@@H]4C[C@H](O)CC[C@]4(C)[C@H]3CC[C@]12C` [UDCA, ursodeoxycholic acid], the “intracellular concentration” value [1, 6] is reported as 263.8±39.3 nmol/10^8 cells, the “intracellular concentration” value [1, 7] is reported as 306.0±135.1 nmol/10^8 cells and the “intracellular concentration” value [2, 8] is reported as 45.5 ± 21.5 nmol. For the same compound, the “intracellular concentration” value [2, 9] was 204.7±97.2 nmol/10^8cells, the apoptotic cells ([3]; 100 μM DCA + UDCA combination, 24 h) was 11.5±2.1% and the “increase in cell viability by coincubation with UDCA” value ([3]; DCA + UDCA, 24 h) was 44±7.1%. The “Peroxides Production (%) Inducer + UDCA” value ([4]; 1 nM TGF-β1 48 h, 100 μM UDCA pretreatment 60 min) was 5.8 ± 2.9 %, the inhibition at 100 µM ([4]; Homo sapiens, inducer TGF-β1, HuH-7, 100 μM UDCA, read-out: % Inhibition of peroxides production) was 47.3 ± 16% and the “Inhibition % Superoxide Anion” value [4, 10] was 69.9 ± 15.6%. For the same compound, the “Inhibition % _Ψm” value [4, 10] was 45.0 ± 21.7%, the “Peroxides Production (%) Inducer + UDCA” value ([5]; 50 nM OA 48 h, 100 μM UDCA pretreatment 60 min) was 5.4 ± 1.5 % and the inhibition at 100 µM ([5]; Homo sapiens, inducer OA, Saos-2, 100 μM UDCA, read-out: % Inhibition of peroxides production) was 64.6 ± 7.5%. For the same compound, the “Inhibition % Superoxide Anion” value [5, 11] was 77.6 ± 18.1% and the “Inhibition % _Ψm” value [5, 11] was 21.9 ± 10.7 %.
In the case of `C=C1[C@@H](O)[C@@H]2O[C@]3(CC[C@H](/C=C/[C@@H](C)[C@@H]4CC(C)=C[C@@]5(O[C@H](C[C@@](C)(O)C(=O)O)CC[C@H]5O)O4)O3)CC[C@H]2O[C@@H]1[C@@H](O)C[C@H](C)[C@H]1O[C@@]2(CCCCO2)CC[C@H]1C` [okadaic acid], the “Peroxides Production (%) Inducer” value ([5]; 50 nM OA, 48 h, Saos-2) is reported as 15.0 ± 1.1%.
In the case of “TGF-β1: transforming growth factor β1, nonmembrane damaging inducer of apoptosis”, the “Peroxides Production (%) Inducer” value ([4]; 1 nM TGF-β1, 48 h, HuH-7) is reported as 11.0 ± 2.9%.
